Drawing on PubChem BioAssay (NCI), this text covers GI50 and TGI for 14 compounds.

Some test systems named below: T-47D breast; MDA-MB-231 breast; HS 578T breast; PC-3 prostate; NCI/ADR-RES ovarian.
Assay in all cases: DTP human tumour cell line panel, 48 h

Structures are written as SMILES.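 Test compounds were applied to cells in 96-well plates for 48 hours at 5 doses. Abbreviation: GI50, concentration required for 50% inhibition of growth. TGI denotes the concentration required for complete inhibition of growth.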

`CCCCCCCCSC1=CC(=O)c2nc3ccccc3c3ccnc1c23`: the GI50 – broadly, the concentration at which growth is held to half of that of the control – in the test on T-47D breast is 84.5 µM; with MDA-MB-231 breast it was 5.94 µM; with HS 578T breast, over 100 µM; with PC-3 prostate, 77.9 µM; with NCI/ADR-RES ovarian, 97.4 µM. For the same compound, the TGI with T-47D breast, with MDA-MB-231 breast, in the test on HS 578T breast, in the test with PC-3 prostate and in the test on NCI/ADR-RES ovarian was over 100 µM throughout.

Regarding `CCOc1ccccc1-n1c(CN2CCN(C(=O)COc3ccc(CNCCCCCCN4C5CCCC4CC(OC(=O)Nc4cc(C)ccc4OC)C5)cc3)CC2)nc2ccccc2c1=O` (stereo unspecified), the GI50 was 1.78 µM with T-47D breast; 0.815 µM with MDA-MB-231 breast; 1.86 µM in the test with HS 578T breast; 1.59 µM in the test with PC-3 prostate; 7.04 µM with NCI/ADR-RES ovarian. For the same compound, the concentration for total growth inhibition (TGI) – broadly, the concentration giving total growth inhibition – in the test on T-47D breast amounted to 3.88 µM; with MDA-MB-231 breast it was 2.13 µM; in the test with HS 578T breast, 3.94 µM; with PC-3 prostate, 3.61 µM; in the test on NCI/ADR-RES ovarian, 19.6 µM.

For the compound `Cc1cc(=O)n2[nH]c(-c3ccc(C(C)(C)C)cc3)cc2n1`, the GI50 in the test with T-47D breast is 4.43 µM; in the test with MDA-MB-231 breast, 13 µM; in the test with HS 578T breast, 3.74 µM; with PC-3 prostate it was 4.13 µM; in the test with NCI/ADR-RES ovarian, 15.9 µM. The TGI was 79.8 µM in the test with T-47D breast; over 100 µM in the test with MDA-MB-231 breast; 33.3 µM with HS 578T breast; 40.6 µM with PC-3 prostate; over 100 µM in the test with NCI/ADR-RES ovarian.

`O=[N+]([O-])c1cnc(Sc2ccncn2)s1`: the GI50 was 2.16 µM in the test with T-47D breast; 3.98 µM in the test with MDA-MB-231 breast; 2.37 µM with HS 578T breast; 2.73 µM with PC-3 prostate; 11.3 µM in the test on NCI/ADR-RES ovarian. Also, the TGI in the test on T-47D breast came out at 4.68 µM; in the test with MDA-MB-231 breast it was 15.1 µM; in the test on HS 578T breast, 5.59 µM; with PC-3 prostate, 17 µM; in the test on NCI/ADR-RES ovarian, 38.3 µM.

Turning to `CC(=O)[O][Hg][c]1c(N)c(C)cc(C)c1F`, the GI50 in the test with T-47D breast is 1.39 µM; with MDA-MB-231 breast, 1.17 µM; in the test with HS 578T breast it was 1.6 µM; in the test on PC-3 prostate it was 2.03 µM; with NCI/ADR-RES ovarian it was 3.48 µM. Moreover, the TGI in the test with T-47D breast stood at 4.47 µM; with MDA-MB-231 breast, 2.64 µM; in the test on HS 578T breast, 6.85 µM; in the test with PC-3 prostate, 6.61 µM; in the test on NCI/ADR-RES ovarian, 23.6 µM.

For `COc1ccc(-c2cc(-c3ccc(Nc4nc(Nc5ccccc5)nc(Nc5ccc(Cl)cc5)n4)cc3)nc(N)c2C#N)cc1`, the GI50 was 0.733 µM in the test with T-47D breast; 1.01 µM in the test on MDA-MB-231 breast; 1.21 µM with HS 578T breast; 1.13 µM in the test on PC-3 prostate; 3.66 µM with NCI/ADR-RES ovarian. Besides, the TGI in the test on T-47D breast is 1.65 µM; in the test on MDA-MB-231 breast, 2.46 µM; with HS 578T breast it was 5.08 µM; with PC-3 prostate, 7.94 µM; in the test with NCI/ADR-RES ovarian it was over 43.1 µM.

On to `Cn1ccnc1C(=O)/C=C/c1ccc(CC(=O)Nc2ccc(Br)cc2)cc1`, for which the GI50 is 5.5 µM in the test on T-47D breast; 4.78 µM with MDA-MB-231 breast; 7.83 µM with HS 578T breast; 2.87 µM in the test with PC-3 prostate; 5.08 µM in the test on NCI/ADR-RES ovarian. Also, the TGI in the test with T-47D breast is over 16.7 µM; with MDA-MB-231 breast, 15.6 µM; with HS 578T breast, over 16.7 µM; in the test with PC-3 prostate, 8.25 µM; in the test with NCI/ADR-RES ovarian it was over 16.7 µM.

On to `COc1cc(/C=C/c2cc(/C=C/c3ccc(O)c(OC)c3)n(C(=O)Nc3ccc(F)cc3)n2)ccc1O`, for which the GI50 in the test on T-47D breast was 2.4 µM; with MDA-MB-231 breast, 2.16 µM; with HS 578T breast it was 0.689 µM; in the test on PC-3 prostate it was 0.957 µM; with NCI/ADR-RES ovarian, 0.449 µM. Moreover, the TGI with T-47D breast is 9.99 µM; with MDA-MB-231 breast, over 65.3 µM; with HS 578T breast, 6.11 µM; with PC-3 prostate it was 12.8 µM; with NCI/ADR-RES ovarian, 27.4 µM.

Consider `CNC(=O)c1cc(Oc2ccc3nc(NC(=O)Nc4ccc(Cl)c(C(F)(F)F)c4)sc3c2)ccn1`, for which the GI50 in the test with T-47D breast was 0.723 µM; in the test on MDA-MB-231 breast it was 1.43 µM; in the test on HS 578T breast, 1.53 µM. Further, the values for the TGI in the test with T-47D breast, with MDA-MB-231 breast and in the test on HS 578T breast were 3.65 µM, 4.29 µM and 6.27 µM, respectively.

`O=C(CCl)N1c2ccccc2Oc2ccc3ccccc3c21`: the GI50 with T-47D breast is 1.69 µM; in the test with MDA-MB-231 breast, 1.28 µM; in the test with HS 578T breast it was 2.29 µM; with PC-3 prostate, 1.72 µM; in the test with NCI/ADR-RES ovarian, 2.36 µM. Further, the concentration for total growth inhibition (TGI) in the test on T-47D breast is 4.15 µM; with MDA-MB-231 breast, 2.81 µM; in the test with PC-3 prostate, 3.62 µM; in the test with NCI/ADR-RES ovarian, over 24 µM.

For `CCCCCCCC(=O)SCC/C=C/[C@@H]1CC(=O)NCc2cccc(n2)C2=N[C@@](C)(CS2)C(=O)N[C@@H](C(C)C)C(=O)N1`, the 50% growth inhibitory concentration (GI50) in the test on T-47D breast is 0.412 µM; with MDA-MB-231 breast, 2.08 µM; with HS 578T breast it was 0.378 µM; in the test on PC-3 prostate, 0.657 µM; with NCI/ADR-RES ovarian it was 31.7 µM. The TGI was 3 µM with T-47D breast; over 33.3 µM in the test on MDA-MB-231 breast; over 33.3 µM in the test on HS 578T breast; over 33.3 µM in the test on PC-3 prostate; over 33.3 µM in the test with NCI/ADR-RES ovarian.

As for `COc1cc2nc(-c3ccc(C(F)(F)F)cc3)cc(OCCCN3CCC(O)CC3)c2cc1OC`, the GI50 with T-47D breast was 2.97 µM; in the test on MDA-MB-231 breast, 0.919 µM; in the test with HS 578T breast, 3.75 µM; in the test with PC-3 prostate, 3.66 µM; in the test with NCI/ADR-RES ovarian, 0.847 µM. For the same compound, the TGI in the test with T-47D breast worked out at 19.1 µM; in the test with MDA-MB-231 breast, 15.6 µM; in the test with HS 578T breast, 20.9 µM; in the test on PC-3 prostate, 19.5 µM; in the test with NCI/ADR-RES ovarian it was 22.7 µM.

For `COc1ccc(C2=CSc3cc(Cl)c(C)cc3S(=O)(=O)N2C(C)=O)cc1`, the GI50 in the test on MDA-MB-231 breast is 14.5 µM; with HS 578T breast, 55.2 µM; in the test with PC-3 prostate it was 21.8 µM; in the test with NCI/ADR-RES ovarian, 26.8 µM. Further, the TGI in the test on MDA-MB-231 breast is 37.9 µM; with HS 578T breast, over 100 µM; in the test with PC-3 prostate, 82.1 µM; in the test with NCI/ADR-RES ovarian, 66.7 µM.

Take `Cc1cnc(NC(=O)C(Cc2ccccc2)NC(=O)c2ccccc2)s1` (stereo unspecified): the GI50 was 23.1 µM in the test with T-47D breast, 6.42 µM in the test with MDA-MB-231 breast, 6.69 µM in the test on HS 578T breast and 4.49 µM in the test on NCI/ADR-RES ovarian. The TGI in the test on T-47D breast was 82.6 µM; in the test on MDA-MB-231 breast it was 27.1 µM; in the test on HS 578T breast, 35.3 µM; with NCI/ADR-RES ovarian, 69.2 µM.
